Test system: T1, BmObc1 (oxalate biosynthetic component 1; His-BmObc1)
T1 construct: gene obc1
Type: biochemical, Burkholderia mallei

Structure (SMILES)	Km [µM]
CC(=O)SCCNC(=O)CCNC(=O)[C@H](O)C(C)(C)COP(=O)(O)OP(=O)(O)OC[C@H]1O[C@@H](n2cnc3c(N)ncnc32)[C@H](O)[C@@H]1OP(=O)(O)O [acetyl-CoA]	26.8 ± 2.3
O=C(O)CC(=O)C(=O)O [oxaloacetate]	94.3 ± 9.2
CCC(=O)SCCNC(=O)CCNC(=O)[C@H](O)C(C)(C)COP(=O)(O)OP(=O)(O)OC[C@H]1O[C@@H](n2cnc3c(N)ncnc32)[C@H](O)[C@@H]1OP(=O)(O)O [propionyl-CoA]	104 ± 12.7

From article PMC5028181 (PLoS ONE, 2016)
